Data as given in patent US11325919B1, “Synthetic novel pyrroloiminoquinone alkaloid and method of use” (priority 2019, dated 2022).
“Also recorded” adds a separate entry of the source.

Experiments:
[1] = test system: L1210; test: differential cytotoxicity zone assay, L1210; assay type: cell-based, murine
From the text: (§1) Discorhabdin A is the precursor to aleutianamine.

[2] = test system: Colon 38; test: differential cytotoxicity zone assay, Colon 38; assay type: cell-based, murine
From the text: as §1

[3] = test system: CFU-GM; test: differential cytotoxicity zone assay, CFU-GM; assay type: cell-based
From the text: as §1

[4] = test system: H-116; test: differential cytotoxicity zone assay, H-116; assay type: cell-based, human
From the text: as §1

[5] = test system: H-125; test: differential cytotoxicity zone assay, H-125; assay type: cell-based
From the text: as §1

[6] = test system: MCF-7; test: differential cytotoxicity zone assay, MCF-7; assay type: cell-based, human
From the text: as §1

[7] = test system: LNCaP; test: differential cytotoxicity zone assay, LNCaP; assay type: cell-based, human
From the text: as §1

[8] = test system: OVC-5; test: differential cytotoxicity zone assay, OVC-5; assay type: cell-based
From the text: as §1

[9] = test system: U251N; test: differential cytotoxicity zone assay, U251N; assay type: cell-based
From the text: as §1

[10] = test system: MDA; test: differential cytotoxicity zone assay, MDA; assay type: cell-based
From the text: as §1

[11] = test system: PANC-1; test: differential cytotoxicity zone assay, PANC-1; assay type: cell-based, human
From the text: as §1

[12] = test system: CEM; test: differential cytotoxicity zone assay, CEM; assay type: cell-based, human
From the text: as §1

[13] = test system: human HCT-116 colon cancer cells; test: cytotoxicity IC50, HCT-116 colon cancer cells; assay type: cell-based
[14] = test system: PANC-1 pancreatic cancer cells; test: cytotoxicity IC50, PANC-1 pancreatic cancer cells; assay type: cell-based; settings: Homo sapiens; pancreatic cancer (PANC-1)
[15] = test system: HCT-116 cells; test: clonogenic studies, concentration-survival as function of exposure time; assay type: cell-based, human
Experimental: Clonogenic studies were carried out using HCT-116 cells to define the concentration-survival relationship as a function of exposure time.^26 The endpoint used, tS10 (10% survival of clonogenic cells for exposure time t) provides information essential for future preclinical therapeutic studies. These clonogenic studies based on formula II yielded a 2S10 value of >5 μM; a 24S10 value of 0.75 μM; and a 168S10 value of 0.1 μM. […] Compounds shown in Formula I are simple modifications and bio-isosteres and would have similar activity to the compound of formula II.

[16] = test system: solid tumor cell lines compared to murine and human leukemia cells; test: differential cytotoxicity zone assay, solid tumor selectivity versus leukemia cells; assay type: cell-based
From the text: as §1

[17] = test system: topoisomerase II; settings: cited from earlier work
[18] = test system: solid human tumor; settings: solid human tumor model; cited from earlier work

## O=C1C2=C3C4=[N+](CCc5c[nH]c1c54)[C@@H]1C[C@]34S[C@@H](C=C4C=C1Br)N2 [Aleutianamine]
[1]; Conc. 2 mg/ml
  zones of inhibition: 950 mm
[1]; Conc. 1/16
  zones of inhibition: 500 mm
[1]; Conc. 1/64
  zones of inhibition: 250 mm
[1]; Conc. ¼
  zones of inhibition: 700 mm
[2]; Conc. 2 mg/ml
  zones of inhibition: >1000 mm
[2]; Conc. 1/16
  zones of inhibition: 900 mm
[2]; Conc. 1/64
  zones of inhibition: 450 mm
[2]; Conc. ¼
  zones of inhibition: >1000 mm
[3]; Conc. 1/16
  zones of inhibition: >1000 mm
[3]; Conc. 1/64
  zones of inhibition: 750 mm
[3]; Conc. ¼
  zones of inhibition: >1000 mm
[4]; Conc. 2 mg/ml
  zones of inhibition: >1000 mm
[4]; Conc. 1/16
  zones of inhibition: 600 mm
[4]; Conc. 1/64
  zones of inhibition: 250 mm
[4]; Conc. ¼
  zones of inhibition: 950 mm
[5]; Conc. 1/16
  zones of inhibition: 900 mm
[5]; Conc. 1/64
  zones of inhibition: 400 mm
[5]; Conc. ¼
  zones of inhibition: >1000 mm
[6]; Conc. 1/16
  zones of inhibition: >1000 mm
[6]; Conc. 1/64
  zones of inhibition: 600 mm
[6]; Conc. ¼
  zones of inhibition: >1000 mm
[7]; Conc. 1/16
  zones of inhibition: 1000 mm
[7]; Conc. 1/64
  zones of inhibition: 500 mm
[8]; Conc. 1/16
  zones of inhibition: 700 mm
[8]; Conc. 1/64
  zones of inhibition: 350 mm
[8]; Conc. ¼
  zones of inhibition: 900 mm
[9]; Conc. 1/16
  zones of inhibition: 850 mm
[9]; Conc. 1/64
  zones of inhibition: 700 mm
[9]; Conc. ¼
  zones of inhibition: >1000 mm
[10]; Conc. 1/16
  zones of inhibition: 800 mm
[10]; Conc. 1/64
  zones of inhibition: 500 mm
[10]; Conc. ¼
  zones of inhibition: >1000 mm
[11]; Conc. 1/16
  zones of inhibition: >1000 mm
[11]; Conc. 1/64
  zones of inhibition: 650 mm
[12]; Conc. 1/16
  zones of inhibition: 750 mm
[12]; Conc. 1/64
  zones of inhibition: 350 mm
[12]; Conc. ¼
  zones of inhibition: 900 mm
[13]; colon cancer (H116)
  IC50: 1000 nM
[13]; colon cancer (H116 / HCT-116)
  IC50: 1000 nM
[14]
  IC50: 25 nM
[15]; exposure time 2
  2S10 (10% survival of clonogenic cells for exposure time t): > 5 µM
[15]; exposure time 24
  24S10 (10% survival of clonogenic cells for exposure time t): 0.75 µM
[15]; exposure time 168
  168S10 (10% survival of clonogenic cells for exposure time t): 0.1 µM
[16]
  selectivity of cell killing: solid tumor selectivity; also recorded: highly potent and selective for pancreatic and breast cancer as well as gliobastoma

## O=C1CC2SC3C[C@]2(C=C1Br)C1=C(N3)C(=O)c2[nH]cc3c2C1=NCC3 (stereo partly drawn) [Discorhabdin A, discorhabdin A]
[1]; Conc. 2 mg/ml
  zones of inhibition: 1000 mm
[1]; Conc. 1/16
  zones of inhibition: 250 mm
[1]; Conc. ¼
  zones of inhibition: 300 mm
[2]; Conc. 2 mg/ml
  zones of inhibition: 750 mm
[2]; Conc. 1/16
  zones of inhibition: 700 mm
[2]; Conc. ¼
  zones of inhibition: 800 mm
[3]; Conc. 1/16
  zones of inhibition: 300 mm
[3]; Conc. ¼
  zones of inhibition: >1000 mm
[4]; Conc. 2 mg/ml
  zones of inhibition: >1000 mm
[4]; Conc. 1/16
  zones of inhibition: 500 mm
[4]; Conc. ¼
  zones of inhibition: 900 mm
[5]; Conc. 1/16
  zones of inhibition: 750 mm
[5]; Conc. 1/64
  zones of inhibition: 400 mm
[5]; Conc. ¼
  zones of inhibition: 950 mm
[6]; Conc. 1/16
  zones of inhibition: 600 mm
[6]; Conc. 1/64
  zones of inhibition: 350 mm
[6]; Conc. ¼
  zones of inhibition: 800 mm
[7]; Conc. 1/16
  zones of inhibition: 500 mm
[7]; Conc. 1/64
  zones of inhibition: 250 mm
[8]; Conc. 1/16
  zones of inhibition: 500 mm
[8]; Conc. 1/64
  zones of inhibition: 200 mm
[8]; Conc. ¼
  zones of inhibition: 700 mm
[9]; Conc. 1/16
  zones of inhibition: 300 mm
[9]; Conc. 1/64
  zones of inhibition: 200 mm
[9]; Conc. ¼
  zones of inhibition: 300 mm
[10]; Conc. 1/16
  zones of inhibition: 500 mm
[10]; Conc. 1/64
  zones of inhibition: 300 mm
[10]; Conc. ¼
  zones of inhibition: 1000 mm
[11]; Conc. 1/16
  zones of inhibition: 150 mm
[11]; Conc. 1/64
  zones of inhibition: 100 mm
[11]; Conc. ¼
  zones of inhibition: 450 mm
[12]; Conc. 1/16
  zones of inhibition: 100 mm
[12]; Conc. 1/64
  zones of inhibition: 50 mm
[12]; Conc. ¼
  zones of inhibition: 450 mm
[17]
  inhibition of topoisomerase II: no inhibition

## C[C@H]([C@H](O)CCC(C)(C)O)[C@H]1CC[C@@]2(O)C3=CC(=O)[C@@H]4C[C@@H](O)[C@@H](O)C[C@]4(C)[C@H]3CC[C@]12C [Ecdysone]
[1]; Conc. 2 mg/ml
  zones of inhibition: 0 mm
[2]; Conc. 2 mg/ml
  zones of inhibition: 0 mm
[4]; Conc. 2 mg/ml
  zones of inhibition: 0 mm
[5]; Conc. 2 mg/ml
  zones of inhibition: 0 mm
[6]; Conc. 2 mg/ml
  zones of inhibition: 0 mm
[7]; Conc. 2 mg/ml
  zones of inhibition: 0 mm
[8]; Conc. 2 mg/ml
  zones of inhibition: 0 mm
[9]; Conc. 2 mg/ml
  zones of inhibition: 0 mm
[10]; Conc. 2 mg/ml
  zones of inhibition: 0 mm
[11]; Conc. 2 mg/ml
  zones of inhibition: 0 mm

## Cn1cc2c3c1C(=O)C(N)=CC3=NCC2 [Makaluvamine A]
[18]
  tumor size: decrease tumor size

## C[N+]1=C2C=C(N)C(=O)c3[nH]cc(c32)CC1.[Cl-] [Makaluvamine C]
[18]
  tumor size: decrease tumor size

## karlotoxin 2
[1]; Conc. 2 mg/ml
  zones of inhibition: 150 mm
[2]; Conc. 2 mg/ml
  zones of inhibition: 200 mm
[4]; Conc. 2 mg/ml
  zones of inhibition: 200 mm
[5]; Conc. 2 mg/ml
  zones of inhibition: 100 mm
[6]; Conc. 2 mg/ml
  zones of inhibition: 200 mm
[7]; Conc. 2 mg/ml
  zones of inhibition: 400 mm
[8]; Conc. 2 mg/ml
  zones of inhibition: 200 mm
[9]; Conc. 2 mg/ml
  zones of inhibition: 150 mm
[10]; Conc. 2 mg/ml
  zones of inhibition: 200 mm
[11]; Conc. 2 mg/ml
  zones of inhibition: 200 mm
[12]; Conc. 2 mg/ml
  zones of inhibition: 100 mm
